Assay results taken from patent publication EP0061341A2, “6-Substituted hexahydroindazolo isoquinolines” (priority 1981, dated 1982).

Test system: prolactin
Test: Serum prolactin levels in rats, reserpinized and non-reserpinized
Type: in vivo, rats of the Sprague-Dawley strain
Settings: for Prolactin Levels Non-Reserpinized 1 / Prolactin Levels Non-Reserpinized 2: rats not pretreated with reserpine, compound 1 mg./kg.; for Prolactin Levels Non-Reserpinized 1: run 1; for Prolactin Levels Non-Reserpinized 2: run 2; for Prolactin Levels Reserpinize: reserpine 2.0 mg. i.p. 18 hours before, compound 1 mg./kg. intraperitoneally, serum one hour after treatment
Method: Adult male rats of the Sprague-Dawley strain weighing about 200 g. were housed in an air-conditioned room with controlled lighting (lights on 6 a.m. - 8 p.m.) and fed lab chow and water ad libitum. Each rat received an intraperitoneal.injection of 2.0 mg. of reserpine in aqueous suspension 18 hours before administration of the compound of formula I. The purpose of the reserpine was to keep prolactin levels uniformly elevated. The compounds under test were dissolved in water and were injected intraperitoneally at a 1 mg./kg. dose level. Each compound was administered to a group of 10 rats, and a control group of 10 intact males received an equivalent amount of solvent. One hour after treatment all rats were killed by decapitation, and 150 ul. aliquots of serum were assayed for prolactin.
In addition, prolactin levels were determined in two runs in which the rats were not pretreated with reserpin. The dose level of the drug was maintained at 1 mg./kg.

| SMILES | Prolactin Levels Non-Reserpinized 1 | Prolactin Levels Non-Reserpinized 2 | Prolactin Levels Reserpinize |
| --- | --- | --- | --- |
| CCCN1CCc2cc(O)c(O)c3c2C1Cc1c[nH]nc1-3 (racemic) [1,2-Dihydroxy-6-n-propyl-4,5,,6,6a,7,9-hexahydroindazolo[7,6,5-ij]isoquinoline] | 40.0±9.5 (P<.05) | 23.8±2.8 | 49.9±6.0 (P<.01) |
| C=CCN1CCc2cc(OC)c(OC)c3c2C1Cc1c[nH]nc1-3 (racemic) [l,2-Dimethoxy-6-allyl-4,5,6,6a,7,9-hexahydroindazolo[7,6,5-ij]isoquinoline] | 7.3±1.6 | – | 26.7±2.7 |
| CN1CCc2cc(O)c(O)c3c2C1Cc1c[nH]nc1-3 (stereo not shown) [1,2-Dihydroxy-6-methyl-4,5,6,6a,7,9-hexahydroindazolo[7,6,5-ij]isoquinoline] | 45.2±5.4 (P<.001) | 21.6±3.9 | 36.4±4.9 |
| CCN1CCc2cc(OC)c(OC)c3c2C1Cc1c[nH]nc1-3 (stereo not shown) [1,2-Dimethoxy-6-ethyl-4,5,6,6a,7,9-hexahydroindazolo[7,6,5-ij]isoquinoline] | 4.6±0.6 | – | 30.5±4.9 |
| COc1cc2c3c(c1OC)-c1n[nH]cc1CC3N(C)CC2 (stereo not shown) [1,2-Dimethoxy-6-methyl-4,5,6,6a,7,9-hexahydroindazolo[7,6,5-ij]isoquinoline] | 36.6±6.6 (P<.02) | 9.0±3.2 | 41.6±7.7 |
| CN1CCc2cccc3c2C1Cc1c[nH]nc1-3 (stereo not shown) [6-Methyl-4,5,6,6a,7,9-hexahydroindazolo-[7,6,5-ij]isoquinoline] | 19.7±3.1 | 11.8±2.7 | 39.3±7.3 |
| CCCN1CCc2cccc3c2C1Cc1c[nH]nc1-3 (stereo not shown) [6-n-Propyl-4,5,6,6a,7,9-hexahydroindazolo[7,6,5-ij]isoquinoline] | 9.5±1.7 | 7.8±2.6 | 22.6±3.8 |
